The values that follow come from paper PMC5829162, “Rational Design, Synthesis and Biological Evaluation of Pyrimidine-4,6-diamine derivatives as Type-II inhibitors of FLT3 Selective Against c-KIT” (Scientific Reports, 2018).

Where two headings read alike, the source gives them in different places.

The term IC50 denotes the concentration at which inhibition is half-maximal. For orientation: melting point means the temperature, or range, at which the solid turns liquid.

Series [1] has as its target T1, FLT3 kinase (Homo sapiens, UniProt P36888).
T1 construct: purchased Invitrogen
T1 sequence (P36888 27-993): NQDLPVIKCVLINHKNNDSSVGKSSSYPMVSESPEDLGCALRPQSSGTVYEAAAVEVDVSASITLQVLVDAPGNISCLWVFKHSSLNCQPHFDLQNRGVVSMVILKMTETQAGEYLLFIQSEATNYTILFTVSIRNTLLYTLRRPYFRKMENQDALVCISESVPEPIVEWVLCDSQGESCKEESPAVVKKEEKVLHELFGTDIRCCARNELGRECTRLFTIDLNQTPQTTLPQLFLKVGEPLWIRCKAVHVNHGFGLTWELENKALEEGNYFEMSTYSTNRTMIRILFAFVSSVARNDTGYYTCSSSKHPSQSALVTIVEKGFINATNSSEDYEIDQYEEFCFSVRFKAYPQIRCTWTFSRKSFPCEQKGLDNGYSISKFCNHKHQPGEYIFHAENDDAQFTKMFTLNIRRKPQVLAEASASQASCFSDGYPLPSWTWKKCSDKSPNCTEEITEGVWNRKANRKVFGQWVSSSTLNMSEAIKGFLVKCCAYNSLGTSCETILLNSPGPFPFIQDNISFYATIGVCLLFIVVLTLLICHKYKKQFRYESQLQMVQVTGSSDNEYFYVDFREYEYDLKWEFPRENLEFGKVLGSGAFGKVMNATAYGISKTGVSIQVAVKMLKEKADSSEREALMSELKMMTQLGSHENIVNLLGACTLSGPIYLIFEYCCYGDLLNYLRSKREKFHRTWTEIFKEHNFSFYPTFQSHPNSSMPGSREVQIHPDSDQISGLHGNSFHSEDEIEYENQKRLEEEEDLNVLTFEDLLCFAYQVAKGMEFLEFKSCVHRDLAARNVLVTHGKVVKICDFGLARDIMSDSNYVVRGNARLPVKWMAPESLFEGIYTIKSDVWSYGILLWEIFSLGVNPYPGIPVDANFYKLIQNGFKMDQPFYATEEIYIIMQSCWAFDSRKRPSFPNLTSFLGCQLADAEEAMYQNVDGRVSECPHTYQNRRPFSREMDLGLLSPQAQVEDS
The series can be described thus: Biochemical enzyme inhibition assay (microfluidics, Caliper EZ Reader II), FLT3. The note with it: for IC50: in vitro kinase assay, 60 min pre-incubation, ATP 190 µM, three independent experiments; for LE: ligand efficiency for FLT3 inhibition; for fold less active than 13a on FLT3: enzymatic FLT3 IC50 compared with 13a. As to the method: Kinase activity was measured in a microfluidics assay that monitors the separation of a phosphorylated product from substrate[31],[32]. […] After, 1 μL was transferred into a 384-well polypropylene assay plate (Greiner, Frickenhausen, Germany). The FLT3 enzyme (Invitrogen™, Grand Island, USA) was diluted in kinase buffer to a concentration of 2 nM and 5 µL of the enzyme mixture was transferred to the assay plate. The inhibitors/FLT3 enzyme were incubated for 60 minutes with minor shaking. […] For positive control, no inhibitor was added. For negative control, no enzyme was added. For running control, quizartinib was utilized. The plate was run until 10–20% conversion based on the positive control wells. The following separation conditions were utilized: upstream voltage −500V; downstream voltage, −1900V; chip pressure −0.8. Percent inhibition was measured for each well comparing starting peptide to phosphorylated product peaks relative to the baseline. Dose response curves, spanning the IC50 dose, were generated in GraphPad Prisim 6 and fit to an exponential one-phase decay line and IC50 values were obtained from the half-life value of the curve. IC50 values were generated in duplicate and error was calculated from the standard deviation between values.
S10. Biochemical Inhibition Assay:1,2 Kinase activity was measured in a microfluidics assay that monitors the separation of a phosphorylated product from substrate. The assay was run using a 12-sipper chip on a Caliper EZ Reader II (PerkinElmer®, Walthman, USA) with separation […]
Walthman, USA]). In 96-well polypropylene plates (Greiner, Frickenhausen, Germany) […]
After, 1 μL was transferred into a 384-well polypropylene assay plate (Greiner, Frickenhausen, Germany). The FLT3 enzyme (Invitrogen™, Grand Island, USA) was diluted in kinase buffer to a concentration of 2 nM and 5 µL of the enzyme mixture was transferred to the assay plate. The inhibitors/FLT3 enzyme were incubated for 60 minutes with minor shaking. A substrate mix was prepared containing ATP (Ambresco®, Solon, USA) and […]
USA) dissolved in kinase buffer, and 5 µL of the substrate mix was added to the assay plate.
For positive control, no inhibitor was added. For negative control, no enzyme was added. For running control, quizartinib was utilized. The plate was run until 10-20% conversion based on the positive control wells. The following separation conditions were utilized: upstream voltage -500V; downstream voltage, -1900V; chip pressure - 0.8. Percent inhibition was measured for each well comparing starting peptide to phosphorylated product peaks relative to the baseline. Dose response curves, spanning the IC50 dose, were generated in GraphPad Prisim 6 and fit to an exponential one-phase decay line and IC50 values were obtained from the half-life value of the curve. IC50 values were generated in duplicate and error was calculated from the standard deviation between values. […]

Turning to `Cn1nc(C(C)(C)C)cc1NC(=O)Cc1ccc(Nc2cc(N3CCOCC3)ncn2)cc1` [13i, 2-(4-(6-Morpholinopyrimidin-4-ylamino)phenyl)-N-(3-tert-butyl-1-methyl-1H-pyrazol-5-yl)acetamide], the IC50 in series [1] (read-out: FLT3 IC50 (nM) ± SD) was 428 ± 99 nM. The LE in series [1] was 0.27.
Turning to `CNc1cc(Oc2ccc(CC(=O)Nc3ccc(C(C)(C)C)cc3)cc2)ncn1` [13x, 2-(4-(6-(Methylamino)pyrimidin-4-yloxy)phenyl)-N-(4-tert-butylphenyl)acetamide], the melting point fell in the range of 208 to 210 °C. Moreover, in series [1] (read-out: FLT3 IC50 (nM) ± SD), the IC50 turned out to be 5090 ± 75.5 nM. In addition, in series [1], the LE was determined as 0.25.
For `O=C(Cc1ccc(Nc2cc(NCCCN3CCCC3)ncn2)cc1)Nc1ccc(OC(F)(F)F)cc1` [13t, 2-(4-(6-(3-(Pyrrolidin-1-yl)propylamino)pyrimidin-4-ylamino)phenyl)-N-(4-(trifluoromethoxy)phenyl)acetamide] the same measures were 212 to 214 °C, 909 ± 95.9 nM and 0.22.
For `COc1ccc(CNC(=O)Cc2ccc(Oc3cc(NC4CCN(Cc5ccccc5)CC4)ncn3)cc2)c(OC)c1` [13ak, N-(2,4-Dimethoxybenzyl)-2-(4-(6-(1-benzylpiperidin-4-ylamino)pyrimidin-4-yloxy)phenyl)acetamide] the same measures were 102 to 104 °C, 13600 ± 494 nM and 0.16.
Consider `CN1CCN(c2cc(Nc3ccc(CC(=O)NC4CC4)cc3)ncn2)CC1` [13ah, 2-(4-(6-(4-Methylpiperazin-1-yl)pyrimidin-4-ylamino)phenyl)-N-cyclopropyl acetamide], for which the IC50 in series [1] (read-out: FLT3 IC50 (nM) ± SD) was 13560 ± 102 nM. Further, in series [1], the LE was found to be 0.25.
For `CS(=O)(=O)c1ccc(Nc2cc(Nc3ccc(CC(=O)Nc4cccc(F)c4)cc3)ncn2)cc1` [13ac, 2-(4-(6-(4-(Methylsulfonyl)phenylamino)pyrimidin-4-ylamino)phenyl)-N-(3-fluorophenyl)acetamide] the same measures were 11710 ± 106 nM and 0.19.
`Cc1ccc(-n2nc(C(C)(C)C)cc2NC(=O)Cc2ccc(Nc3cc(Nc4ccc(S(C)(=O)=O)cc4)ncn3)cc2)cc1` [13h, 2-(4-(6-(4-(Methylsulfonyl)phenylamino)pyrimidin-4-ylamino)phenyl)-N-(3-tert-butyl-1-p-tolyl-1H-pyrazol-5-yl)acetamide] showed a melting point of 155 to 157 °C. The half-maximal inhibitory concentration (IC50) in series [1] (read-out: FLT3 IC50 (nM) ± SD) worked out at 4840 ± 170 nM. The same compound returned an LE in series [1] of 0.16.
In turn, `CC(C)(C)c1cc(NC(=O)Cc2ccc(Nc3cc(Oc4ccc(Br)cc4)ncn3)cc2)no1` [13o, 2-(4-(6-(4-Bromophenoxy)pyrimidin-4-ylamino)phenyl)-N-(5-tert-butylisoxazol-3-yl)acetamide] came in with a melting point of 188 to 190 °C. In series [1] (FLT3 IC50 (nM) ± SD), this compound yielded an IC50 of 14800 ± 248 nM. This compound came in with an LE in series [1] of 0.19.
With `Cn1nc(C(C)(C)C)cc1NC(=O)Nc1ccc(Nc2cc(Nc3ccc(S(C)(=O)=O)cc3)ncn2)cc1` [24a, 1-(4-(6-(4-(Methylsulfonyl)phenylamino)pyrimidin-4-ylamino)phenyl)-3-(3-tert-butyl-1-methyl-1H-pyrazol-5-yl)urea], the melting point lay in the range of 238 to 240 °C. In addition, in series [1], the “fold less active than 13a on FLT3” value is recorded as ~ 3 fold and the LE was 0.27. For the same compound, the IC50 in series [1] (read-out: FLT3 IC50 (nM) ± SD) worked out at 41 ± 6.8 nM.
Turning to `CS(=O)(=O)c1ccc(Nc2cc(Nc3ccc(CC(=O)Nc4cccc(C(F)(F)F)c4)cc3)ncn2)cc1` [13s, 2-(4-(6-(4-(Methylsulfonyl)phenylamino)pyrimidin-4-ylamino)phenyl)-N-(3-(trifluoromethyl)phenyl)acetamide], the melting point was 225 to 227 °C. In addition, the IC50 in series [1] (read-out: FLT3 IC50 (nM) ± SD) was 860 ± 30 nM. Moreover, the LE in series [1] is given as 0.22.
For `Cn1nc(C(C)(C)C)cc1NC(=O)Cc1ccc(Oc2cc(Nc3cccc(C(F)(F)F)c3)ncn2)cc1` [13f, 2-(4-(6-(3-(Trifluoromethyl)phenylamino)pyrimidin-4-yloxy)phenyl)-N-(3-tert-butyl-1-methyl-1H-pyrazol-5-yl)acetamide] the same measures were 140 to 142 °C, 961 ± 33.7 nM and 0.22.
Turning to `Cn1nc(C(C)(C)C)cc1NC(=O)Cc1ccc(Oc2cc(Nc3ccc(S(C)(=O)=O)cc3)ncn2)cc1` [13e, 2-(4-(6-(4-(Methylsulfonyl)phenylamino)pyrimidin-4-yloxy)phenyl)-N-(3-tert-butyl-1-methyl-1H-pyrazol-5-yl)acetamide], the IC50 in series [1] (read-out: FLT3 IC50 (nM) ± SD) stood at 268 ± 25 nM. The LE in series [1] turned out to be 0.24.
Regarding `O=C(Cc1ccc(Nc2cc(NCCCN3CCCC3)ncn2)cc1)Nc1cccc(C(F)(F)F)c1` [13ab, 2-(4-(6-(3-(Pyrrolidin-1-yl)propylamino)pyrimidin-4-ylamino)phenyl)-N-(3-(trifluoromethyl)phenyl)acetamide], the IC50 in series [1] (read-out: FLT3 IC50 (nM) ± SD) was found to be 9170 ± 236 nM. This compound also gave an LE in series [1] of 0.19.
The compound `CNc1cc(Oc2ccc(CC(=O)Nc3ccc(F)cc3)cc2)ncn1` [13ad, 2-(4-(6-(Methylamino)pyrimidin-4-yloxy)phenyl)-N-(4-fluorophenyl)acetamide] registered a melting point of 124 to 126 °C. Further, the IC50 in series [1] (read-out: FLT3 IC50 (nM) ± SD) was found to be 12800 ± 834 nM. In series [1], this compound displayed an LE of 0.26.
On to “N-(4-Fluorobenzyl)-2-(4-(6-(3-(pyrrolidin-1-yl)propylamino)pyrimidin-4-yloxy)phenyl)acetamide [13w]”, for which the IC50 in series [1] (read-out: FLT3 IC50 (nM) ± SD) was determined as 4560 ± 330 nM. The compound also showed an LE in series [1] of 0.21.
For `O=C(Cc1ccc(Nc2cc(NCCCN3CCCCC3)ncn2)cc1)Nc1ccc(OC(F)(F)F)cc1` [13y, 2-(4-(6-(3-(Piperidin-1-yl)propylamino)pyrimidin-4-ylamino)phenyl)-N-(4-(trifluoromethoxy)phenyl)acetamide] the same measures were 6460 ± 251 nM and 0.19.
With `Cn1nc(C(C)(C)C)cc1NC(=O)Cc1ccc(Nc2cc(NCCCN3CCCCC3)ncn2)cc1` [13c, 2-(4-(6-(3-(Piperidin-1-yl)propylamino)pyrimidin-4-ylamino)phenyl)-N-(3-tert-butyl-1-methyl-1H-pyrazol-5-yl)acetamide], the 50% inhibitory concentration (IC50) in series [1] (read-out: FLT3 IC50 (nM) ± SD) was 129.3 ± 0.9 nM. The LE in series [1] worked out at 0.26.
As for `Cn1nc(C(C)(C)C)cc1NC(=O)Cc1ccc(Nc2cccc(Nc3ccc(S(C)(=O)=O)cc3)n2)cc1` [compound 18, 2-(4-(6-(4-(Methylsulfonyl)phenylamino)pyridin-2-ylamino)phenyl)-N-(3-tert-butyl-1-methyl-1H-pyrazol-5-yl)acetamide], in series [1], the “fold less active than 13a on FLT3” value is given as more than 100 fold. Further, the IC50 in series [1] (read-out: FLT3 IC50 (nM) ± SD) is 5720 nM.
Take `O=C(Cc1ccc(Nc2cc(Nc3cccc(C(F)(F)F)c3)ncn2)cc1)NC1CC1` [13af, 2-(4-(6-(3-(Trifluoromethyl)phenylamino)pyrimidin-4-ylamino)phenyl)-N-cyclopropylacetamide]: the 50% inhibitory concentration (IC50) in series [1] (read-out: FLT3 IC50 (nM) ± SD) amounted to 8060 ± 274 nM. In addition, in series [1], the LE came to 0.23.
